The results in this text go back to ChEMBL document CHEMBL4725232, “Synthesis and biological activity of new bisbenzofuran-imidazolium salts” (Bioorg Med Chem Lett, 2020).

SMILES strings stand for the structures.

As usually defined, the IC50 is the concentration that gives 50% inhibition. Read a low IC50 as higher potency.

Format in all cases: functional, cell-based
The subject of one experiment is A549. As to the kind of experiment: Antiproliferative activity against human […] cells by MTS assay. (Tetrazolium assays rely on reduction of a dye to a coloured formazan, in cell work by metabolically active cells.)
Another experiment deals with MCF7. The experiment in a line: Antiproliferative activity against human MCF7 cells by MTS assay.
The test system of a further experiment is SMMC-7721. The experiment in a line: Antiproliferative activity against human SMMC7721 by MTS assay.
Another experiment concerns SW480. The experiment in a line: Antiproliferative activity against human SW480 cells by MTS assay.
A further experiment relates to HL-60. As to the kind of experiment: Antiproliferative activity against human HL60 cells by MTS assay.

`Cc1n(CC=C(c2cc3ccccc3o2)c2cc3ccccc3o2)c2ccccc2[n+]1CC(=O)c1ccc(Br)cc1`: the IC50 with A549 amounted to 7.43 µM; in the experiment on MCF7, 1720 nM; in the experiment on SMMC-7721, 6.84 µM; with SW480 it was 0.8 µM; in the experiment on HL-60, 2.43 µM.

Consider `C(Cn1cnc2ccccc21)=C(c1cc2ccccc2o1)c1cc2ccccc2o1`, for which the half-maximal inhibitory concentration (IC50) was over 20 µM with A549; over 20000 nM in the experiment on MCF7; over 20 µM in the experiment on SMMC-7721; over 20 µM with SW480; over 20 µM in the experiment on HL-60.

As for `Cc1cc2ncn(CC=C(c3cc4ccccc4o3)c3cc4ccccc4o3)c2cc1C`, the 50% inhibitory concentration (IC50) with A549 was over 20 µM; in the experiment on MCF7 it was over 20000 nM; with SMMC-7721, over 20 µM; with SW480 it was over 20 µM; with HL-60, over 20 µM.

With `O=C(C[n+]1cn(CC=C(c2cc3ccccc3o2)c2cc3ccccc3o2)c2ccccc21)c1ccc(Br)cc1`, the IC50 is 6.46 µM with A549; 1630 nM with MCF7; 6.05 µM with SMMC-7721; 1.43 µM with SW480; 1.73 µM with HL-60.

Take `Cc1n(CC=C(c2cc3ccccc3o2)c2cc3ccccc3o2)c2ccccc2[n+]1CC(=O)c1ccc(-c2ccccc2)cc1`: the IC50 is 1.96 µM in the experiment with A549; 1230 nM with MCF7; 1.67 µM in the experiment on SMMC-7721; 1.48 µM in the experiment with SW480; 1.41 µM in the experiment with HL-60.

For the compound `O=C(C[n+]1ccn(CC=C(c2cc3ccccc3o2)c2cc3ccccc3o2)c1)c1ccc2ccccc2c1`, the IC50 with A549 is over 20 µM; with MCF7 it was 7830 nM; in the experiment on SMMC-7721 it was over 20 µM; with SW480, 6.97 µM; with HL-60 it was 7.73 µM.

For the compound `O=C(C[n+]1cn(CC=C(c2cc3ccccc3o2)c2cc3ccccc3o2)c2ccccc21)c1ccccc1`, the IC50 with A549 came out at 6.02 µM; in the experiment on MCF7, 1560 nM; in the experiment on SMMC-7721, 3.93 µM; with SW480 it was 1.92 µM; with HL-60 it was 1.44 µM.

For `Cc1cc2c(cc1C)[n+](CC(=O)c1ccc3ccccc3c1)cn2CC=C(c1cc2ccccc2o1)c1cc2ccccc2o1`, the IC50 was determined as 5.34 µM in the experiment on A549; 2380 nM with MCF7; 5.9 µM in the experiment with SMMC-7721; 2.36 µM with SW480; 3.14 µM in the experiment with HL-60.

`Cc1n(CC=C(c2cc3ccccc3o2)c2cc3ccccc3o2)c2ccccc2[n+]1CC(=O)c1ccc2ccccc2c1`: the IC50 in the experiment on A549 came out at 1.58 µM; in the experiment on MCF7, 970 nM; in the experiment with SMMC-7721 it was 1.51 µM; in the experiment with SW480 it was 1.54 µM; with HL-60 it was 1.58 µM.

In the case of `COc1ccc(C(=O)C[n+]2cn(CC=C(c3cc4ccccc4o3)c3cc4ccccc4o3)c3ccccc32)cc1`, the concentration for half-maximal inhibition (IC50) in the experiment on A549 worked out at 2.32 µM; with MCF7, 1020 nM; with SMMC-7721, 1.53 µM; with SW480 it was 1.47 µM; in the experiment with HL-60, 1.19 µM.

As to `COc1ccc(C(=O)C[n+]2c(C)n(CC=C(c3cc4ccccc4o3)c3cc4ccccc4o3)c3ccccc32)cc1`, the IC50 in the experiment on A549 stood at 1.47 µM; with MCF7, 640 nM; with SMMC-7721 it was 1.38 µM; in the experiment on SW480, 0.88 µM; with HL-60, 1.11 µM.

For `Cc1cc2c(cc1C)[n+](CC(=O)c1ccccc1)cn2CC=C(c1cc2ccccc2o1)c1cc2ccccc2o1`, the 50% inhibitory concentration (IC50) in the experiment with A549 was found to be 7.08 µM; in the experiment on MCF7 it was 3420 nM; in the experiment on SMMC-7721, 6.38 µM; in the experiment on SW480, 4.3 µM; with HL-60, 4.33 µM.

`Cc1cc2c(cc1C)[n+](CC(=O)c1ccc(Br)cc1)cn2CC=C(c1cc2ccccc2o1)c1cc2ccccc2o1`: the IC50 in the experiment with A549 is 7.42 µM; with MCF7, 7050 nM; in the experiment with SMMC-7721, 7.81 µM; with SW480 it was 7.93 µM; in the experiment on HL-60, 6.27 µM.

In the case of `Cc1cc2c(cc1C)[n+](CC(=O)c1ccc(-c3ccccc3)cc1)cn2CC=C(c1cc2ccccc2o1)c1cc2ccccc2o1`, the concentration for half-maximal inhibition (IC50) is 7.68 µM in the experiment on A549; 8670 nM in the experiment with MCF7; 9.04 µM in the experiment on SMMC-7721; 6.42 µM in the experiment with SW480; 6.93 µM in the experiment on HL-60.

For the compound `O=C(C[n+]1ccn(CC=C(c2cc3ccccc3o2)c2cc3ccccc3o2)c1)c1ccc(Br)cc1`, the IC50 in the experiment on A549 is 8.47 µM; with MCF7 it was 7290 nM; in the experiment with SMMC-7721 it was 7.86 µM; in the experiment with SW480, 6.17 µM; in the experiment with HL-60, 8.4 µM.

For `O=C(C[n+]1cn(CC=C(c2cc3ccccc3o2)c2cc3ccccc3o2)c2ccccc21)c1ccc2ccccc2c1`, the half-maximal inhibitory concentration (IC50) amounted to 1.54 µM with A549; 1440 nM with MCF7; 1.46 µM with SMMC-7721; 1.77 µM in the experiment on SW480; 1.63 µM in the experiment on HL-60.

Take `Cc1n(CC=C(c2cc3ccccc3o2)c2cc3ccccc3o2)c2ccccc2[n+]1CC(=O)c1ccccc1`: the 50% inhibitory concentration (IC50) in the experiment on A549 was 3.5 µM; in the experiment on MCF7, 800 nM; in the experiment with SMMC-7721, 1.34 µM; in the experiment on SW480, 0.79 µM; in the experiment with HL-60, 1.08 µM.

Regarding `COc1ccc(C(=O)C[n+]2ccn(CC=C(c3cc4ccccc4o3)c3cc4ccccc4o3)c2)cc1`, the IC50 in the experiment with A549 was over 20 µM; with MCF7, over 20000 nM; in the experiment on SMMC-7721, over 20 µM; in the experiment on SW480, over 20 µM; in the experiment with HL-60, over 20 µM.

Take `COc1ccc(C(=O)C[n+]2cn(CC=C(c3cc4ccccc4o3)c3cc4ccccc4o3)c3cc(C)c(C)cc32)cc1`: the 50% inhibitory concentration (IC50) is 8.25 µM with A549; 7970 nM in the experiment on MCF7; 9.46 µM in the experiment with SMMC-7721; 5.8 µM in the experiment on SW480; 8 µM in the experiment with HL-60.

Regarding `O=C(C[n+]1ccn(CC=C(c2cc3ccccc3o2)c2cc3ccccc3o2)c1)c1ccccc1`, the 50% inhibitory concentration (IC50) in the experiment on A549 is over 20 µM; with MCF7, 11200 nM; in the experiment on SMMC-7721, over 20 µM; in the experiment with SW480 it was 6.44 µM; in the experiment on HL-60, 6.95 µM.

As to `O=C(C[n+]1ccn(CC=C(c2cc3ccccc3o2)c2cc3ccccc3o2)c1)c1ccc(-c2ccccc2)cc1`, the 50% inhibitory concentration (IC50) stood at 9.05 µM with A549; 7570 nM in the experiment on MCF7; 8.04 µM in the experiment on SMMC-7721; 7.2 µM in the experiment with SW480; 7.25 µM in the experiment on HL-60.

Turning to `C(Cn1ccnc1)=C(c1cc2ccccc2o1)c1cc2ccccc2o1`, the 50% inhibitory concentration (IC50) in the experiment with A549 was over 20 µM; in the experiment with MCF7, over 20000 nM; in the experiment on SMMC-7721 it was over 20 µM; in the experiment on SW480, over 20 µM; with HL-60, over 20 µM.

On to `O=C(C[n+]1cn(CC=C(c2cc3ccccc3o2)c2cc3ccccc3o2)c2ccccc21)c1ccc(-c2ccccc2)cc1`, for which the half-maximal inhibitory concentration (IC50) in the experiment on A549 was determined as 7.23 µM; in the experiment on MCF7, 2420 nM; with SMMC-7721 it was 6.69 µM; in the experiment on SW480 it was 5.94 µM; in the experiment on HL-60, 5.33 µM.

In the case of `Cc1nc2ccccc2n1CC=C(c1cc2ccccc2o1)c1cc2ccccc2o1`, the IC50 with A549 is over 20 µM; with MCF7 it was over 20000 nM; in the experiment with SMMC-7721, over 20 µM; in the experiment with SW480, over 20 µM; with HL-60, over 20 µM.
